Results as given in PMC11124940, “Sweeteners Show a Plasticizing Effect on PVP K30—A Solution for the Hot-Melt Extrusion of Fixed-Dose Amorphous Curcumin-Hesperetin Solid Dispersions” (Pharmaceutics, 2024).
In brackets after ≈: the same amount, converted by molar mass. Where two headings read alike, the source gives them in different places.

Columns and labels:
[1] = PAMPA GIT permeability assay; assay type: in vitro ADME; conditions: GIT model, donor pH ≈6.8, 4 h, 37 °C
Protocol: (§1) The injection volume differed depending on the assay. […] The duration of the run was 10 min.

[2] = Apparent solubility study (24 h, 25 °C, HPLC); assay type: physicochemical
Protocol: as §1
Phosphate buffer at pH 6.8 was prepared as follows: 250 mL of 0.2 N potassium dihydrogen phosphate solution was placed in a 1000 mL volumetric flask, and then 112 mL of 0.2 N sodium hydroxide solution was added. The volume was made up to 1000 mL with purified water. Hydrochloric acid solution pH 1.2 was prepared from the analytically weighed amount following the manufacturer’s (Alfachem, Poznań, Poland) recommendations.
An excess amount of powder (corresponding to 6 mg of each active substance) was placed in a 10 mL glass tube. Then, 2.0 mL of phosphate buffer (pH 6.8) or HCl solution (pH 1.2) was added and stirred at 100 rpm at room temperature (25 ± 0.1 °C) for 24 h.

[3] = PAMPA, 4 h, pH 7.4
Protocol: Concentrations of curcumin and hesperetin in samples collected during solubility, dissolution, and permeability studies were determined using HPLC with the DAD detector (HPLC-DAD). Shimadzu Nexera (Shimadzu Corp., Kyoto, Japan) equipped with an SCL-40 system controller, a DGU-403 degassing unit, an LC-40B XR solvent delivery module, a SIL-40C autosampler, a CTO-40C column oven, and an SPD-M40 photodiode array detector were employed in this investigation. For the stationary phase, a Dr. Maisch ReproSil-Pur Basic-C18 100 Å column with 5 µm particle size and 250 × 4.60 mm (Dr. Maisch, Ammerbuch-Entringen, Germany) was used. The mobile phase was HPLC-grade methanol:0.1% acetic acid (80:20 v/v). The mobile phase was vacuum filtered through a 0.45 µm nylon filter (Phenomenex, Torrance, CA, USA). The experimental conditions were as follows: a 1.0 mL/min flow rate, a wavelength of 420 nm for curcumin and 288 nm for hesperetin, and a column temperature of 30 °C. The injection volume differed depending on the assay. For the solubility study, it was 2 µL, whereas for the dissolution and permeability assays, it was 10 µL. […]
In vitro, gastrointestinal (GIT) and blood–brain barrier (BBB) permeability was studied using the Parallel Artificial Membrane Permeability Assay (PAMPA) models. […] The results are expressed as a concentration of the compound in the acceptor solution.

| Hesperetin Concentration in the acceptor solution [1] | solubility at 24 h ([2]; HCl solution, simulated gastric fluid, thermodynamic from solid, pH 1.2 HCl, read-out: Hesperetin Concentration (apparent solubility)) [µg/mL] | solubility at 24 h ([2]; aqueous buffer, thermodynamic from solid, pH 6.8 phosphate buffer, read-out: Hesperetin Concentration (apparent solubility)) [µg/mL] | Hesperetin Concentration in the acceptor solution [3] | Curcumin Concentration in the acceptor solution [1] | solubility at 24 h ([2]; HCl solution, pH 1.2 HCl, read-out: Curcumin Concentration (apparent solubility)) [µg/mL] | solubility at 24 h ([2]; aqueous buffer, thermodynamic from solid, pH 6.8 phosphate buffer, read-out: Curcumin Concentration (apparent solubility)) [µg/mL] | Curcumin Concentration in the acceptor solution [3] | Compound |
| --- | --- | --- | --- | --- | --- | --- | --- | --- |
| 2.58 × 10^−5 ± 6.16 × 10^−6 c mg/mL | 4 ± 1 (≈ 13.2 µM) | 5 ± 1 (≈ 16.5 µM) | 3.89 × 10^−5 ± 1.66 × 10^−5 c mg/mL |  |  |  |  | COc1ccc([C@@H]2CC(=O)c3c(O)cc(O)cc3O2)cc1O [Hesperetin] |
|  |  |  |  | 3.34 × 10^−6 ± 1.94 × 10^−6 c mg/mL | 0.1 ± 0.01 (≈ 0.271 µM) | 0.14 ± 0.02 (≈ 0.38 µM) | 1.86 × 10^−5 ± 2.48 × 10^−6 c mg/mL | COc1cc(/C=C/C(=O)CC(=O)/C=C/c2ccc(O)c(OC)c2)ccc1O [Curcumin] |
